Reference: ChEMBL document CHEMBL4680246, “Design, synthesis and biological evaluation of novel O-carbamoyl ferulamide derivatives as multi-target-directed ligands for the treatment of Alzheimer's disease” (Eur J Med Chem, 2020)

Species on record: Danio rerio
Assay: Antialzheimer activity in AlCl3-induced Zebrafish model of Alzheimer's disease assessed as motility distance at 8 uM (reference value: 5346 mm)
Format: functional

Row | Compound | Activity [mm]
1 | COc1cc2c(cc1OC)C(=O)C(CC1CCN(Cc3ccccc3)CC1)C2 (configuration not stated) [DONEPEZIL] | 6477

Biological target: T1, Cholinesterase (Homo sapiens, UniProt P06276)
T1 sequence (P06276 whole entry): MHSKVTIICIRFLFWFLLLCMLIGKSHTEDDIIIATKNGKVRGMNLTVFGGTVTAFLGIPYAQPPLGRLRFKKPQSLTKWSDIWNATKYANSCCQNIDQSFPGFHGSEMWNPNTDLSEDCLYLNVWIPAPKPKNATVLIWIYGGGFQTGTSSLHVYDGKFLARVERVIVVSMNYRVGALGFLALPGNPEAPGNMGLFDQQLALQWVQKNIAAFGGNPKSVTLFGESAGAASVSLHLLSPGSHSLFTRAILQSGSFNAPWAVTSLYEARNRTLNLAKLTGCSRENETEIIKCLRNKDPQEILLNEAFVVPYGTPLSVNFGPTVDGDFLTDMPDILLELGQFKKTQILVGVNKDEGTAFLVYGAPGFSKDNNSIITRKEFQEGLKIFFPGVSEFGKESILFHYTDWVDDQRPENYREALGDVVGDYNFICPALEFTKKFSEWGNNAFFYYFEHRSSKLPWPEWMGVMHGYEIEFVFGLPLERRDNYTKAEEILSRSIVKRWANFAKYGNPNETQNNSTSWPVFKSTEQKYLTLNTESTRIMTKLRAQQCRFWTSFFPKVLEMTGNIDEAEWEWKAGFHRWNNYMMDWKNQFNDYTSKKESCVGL
Assay: Inhibition of human serum BuChE using acetylcholine iodide as substrate incubated for 15 mins by Ellman's method

Row | Compound | IC50 [µM]
2 | COc1cc(/C=C/C(=O)N2CCCCC2)ccc1OC(=O)N(C)C | 13.1
3 | CCN(C)C(=O)Oc1ccc(/C=C/C(=O)N2CCC(Cc3ccccc3)CC2)cc1 | 5.6
4 | COc1cc(/C=C/C(=O)O)ccc1O [FERULATE] | > 100
5 | CCN(CC)C(=O)Oc1ccc(/C=C/C(=O)N2CCc3ccccc3C2)cc1OC | 7.7

Biological target: T2, Amine oxidase [flavin-containing] B (Homo sapiens, UniProt P27338)
T2 sequence (P27338 whole entry): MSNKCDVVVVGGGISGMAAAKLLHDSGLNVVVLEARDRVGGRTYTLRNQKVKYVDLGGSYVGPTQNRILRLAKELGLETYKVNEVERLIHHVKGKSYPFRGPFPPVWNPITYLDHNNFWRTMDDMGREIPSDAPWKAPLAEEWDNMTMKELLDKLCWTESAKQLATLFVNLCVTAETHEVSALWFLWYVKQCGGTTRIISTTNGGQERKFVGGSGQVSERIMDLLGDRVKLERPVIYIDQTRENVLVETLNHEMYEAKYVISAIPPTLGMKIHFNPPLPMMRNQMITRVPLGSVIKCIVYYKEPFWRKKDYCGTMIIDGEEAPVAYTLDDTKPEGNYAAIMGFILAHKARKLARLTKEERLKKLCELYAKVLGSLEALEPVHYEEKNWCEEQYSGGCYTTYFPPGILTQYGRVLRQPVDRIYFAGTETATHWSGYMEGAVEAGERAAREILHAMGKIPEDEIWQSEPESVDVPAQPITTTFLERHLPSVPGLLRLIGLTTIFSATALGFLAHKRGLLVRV
Assay: Inhibition of recombinant human MAO-B

Row | Compound | IC50 [µM]
6 | COc1cc(/C=C/C(=O)N2CCCCC2)ccc1OC(=O)N(C)C | 32.5
7 | CCN(C)C(=O)Oc1ccc(/C=C/C(=O)N2CCC(Cc3ccccc3)CC2)cc1 | 7.8
8 | CCN(CC)C(=O)Oc1ccc(/C=C/C(=O)N2CCc3ccccc3C2)cc1OC | 6.6

Biological target: Acetylcholinesterase (Electrophorus electricus, UniProt O42275)
Sequence (O42275 whole entry): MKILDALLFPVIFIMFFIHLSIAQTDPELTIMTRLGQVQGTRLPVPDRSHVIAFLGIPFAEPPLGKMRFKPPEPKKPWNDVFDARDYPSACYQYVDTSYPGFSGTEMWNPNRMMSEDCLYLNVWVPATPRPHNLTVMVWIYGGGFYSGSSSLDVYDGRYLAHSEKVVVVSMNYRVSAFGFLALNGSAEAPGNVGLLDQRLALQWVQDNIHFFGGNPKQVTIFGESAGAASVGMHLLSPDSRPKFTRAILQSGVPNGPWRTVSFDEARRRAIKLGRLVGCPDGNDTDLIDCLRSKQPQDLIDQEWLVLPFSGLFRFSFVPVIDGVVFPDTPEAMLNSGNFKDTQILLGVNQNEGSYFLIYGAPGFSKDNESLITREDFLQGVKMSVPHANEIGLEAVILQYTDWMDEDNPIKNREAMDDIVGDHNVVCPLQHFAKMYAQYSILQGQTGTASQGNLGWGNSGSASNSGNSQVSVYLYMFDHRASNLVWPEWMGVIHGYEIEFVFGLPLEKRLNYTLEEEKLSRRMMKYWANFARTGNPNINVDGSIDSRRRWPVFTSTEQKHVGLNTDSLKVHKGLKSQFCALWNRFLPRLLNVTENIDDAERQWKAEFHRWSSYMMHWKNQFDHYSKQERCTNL
Assay: Inhibition of Electrophorus electricus AChE using acetylcholine iodide as substrate incubated for 15 mins by Ellman's method

Row | Compound | IC50 [µM]
9 | COc1cc(/C=C/C(=O)N2CCCCC2)ccc1OC(=O)N(C)C | 17.5
10 | CCN(C)C(=O)Oc1ccc(/C=C/C(=O)N2CCC(Cc3ccccc3)CC2)cc1 | 22.1
11 | COc1cc(/C=C/C(=O)O)ccc1O [FERULATE] | > 100
12 | CCN(CC)C(=O)Oc1ccc(/C=C/C(=O)N2CCc3ccccc3C2)cc1OC | 13.6

Species on record: Danio rerio
Assay: Antialzheimer activity in AlCl3-induced Zebrafish model of Alzheimer's disease assessed as increase in motility speed at 8 uM relative to control
Format: functional

Row | Compound | Efficacy [%]
13 | COc1cc2c(cc1OC)C(=O)C(CC1CCN(Cc3ccccc3)CC1)C2 (configuration not stated) [DONEPEZIL] | 64.5

Species on record: Homo sapiens
Assay: Selectivity index, ratio of IC50 for human erythrocytes Ache to IC50 for human serum BuChe

Row | Compound | Ratio IC50
14 | COc1cc(/C=C/C(=O)N2CCCCC2)ccc1OC(=O)N(C)C | 0.69
15 | CCN(C)C(=O)Oc1ccc(/C=C/C(=O)N2CCC(Cc3ccccc3)CC2)cc1 | 4.8
16 | CCN(CC)C(=O)Oc1ccc(/C=C/C(=O)N2CCc3ccccc3C2)cc1OC | 2

Biological target: Cholinesterase (Equus caballus, UniProt P81908)
Sequence (P81908 whole entry): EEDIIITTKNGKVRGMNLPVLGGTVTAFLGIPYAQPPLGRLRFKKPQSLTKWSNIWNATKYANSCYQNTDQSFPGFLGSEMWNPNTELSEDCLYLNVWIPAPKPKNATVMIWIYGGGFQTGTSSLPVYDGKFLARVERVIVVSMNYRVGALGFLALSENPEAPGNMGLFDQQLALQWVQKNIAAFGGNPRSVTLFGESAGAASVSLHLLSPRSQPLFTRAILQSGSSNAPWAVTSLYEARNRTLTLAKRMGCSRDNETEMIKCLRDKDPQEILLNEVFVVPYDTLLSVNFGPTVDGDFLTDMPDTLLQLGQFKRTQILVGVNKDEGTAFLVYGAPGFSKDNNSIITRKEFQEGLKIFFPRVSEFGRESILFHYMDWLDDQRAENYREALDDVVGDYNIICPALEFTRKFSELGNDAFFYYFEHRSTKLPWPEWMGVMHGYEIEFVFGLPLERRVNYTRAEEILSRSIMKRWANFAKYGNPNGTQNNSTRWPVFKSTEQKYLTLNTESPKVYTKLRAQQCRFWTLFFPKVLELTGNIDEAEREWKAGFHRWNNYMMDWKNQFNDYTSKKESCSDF
Assay: Inhibition of equine serum BuChE using BTC as substrate after 15 mins by Ellman's method

Row | Compound | IC50 [µM]
17 | COc1cc(/C=C/C(=O)N2CCCCC2)ccc1OC(=O)N(C)C | 26.3
18 | CCN(C)C(=O)Oc1ccc(/C=C/C(=O)N2CCC(Cc3ccccc3)CC2)cc1 | 5.3
19 | COc1cc(/C=C/C(=O)O)ccc1O [FERULATE] | > 100
20 | CCN(CC)C(=O)Oc1ccc(/C=C/C(=O)N2CCc3ccccc3C2)cc1OC | 2

Species on record: Homo sapiens
Assay: Selectivity index, ratio of IC50 for recombinant human MAO-A to IC50 for recombinant human MAO-B

Row | Compound | Ratio IC50
21 | COc1cc(/C=C/C(=O)N2CCCCC2)ccc1OC(=O)N(C)C | 1
22 | CCN(C)C(=O)Oc1ccc(/C=C/C(=O)N2CCC(Cc3ccccc3)CC2)cc1 | 7.3
23 | CCN(CC)C(=O)Oc1ccc(/C=C/C(=O)N2CCc3ccccc3C2)cc1OC | 1.2

Biological target: Amyloid-beta precursor protein (Homo sapiens) (UniProt P05067)
Sequence (P05067 whole entry, the tested form may be a part): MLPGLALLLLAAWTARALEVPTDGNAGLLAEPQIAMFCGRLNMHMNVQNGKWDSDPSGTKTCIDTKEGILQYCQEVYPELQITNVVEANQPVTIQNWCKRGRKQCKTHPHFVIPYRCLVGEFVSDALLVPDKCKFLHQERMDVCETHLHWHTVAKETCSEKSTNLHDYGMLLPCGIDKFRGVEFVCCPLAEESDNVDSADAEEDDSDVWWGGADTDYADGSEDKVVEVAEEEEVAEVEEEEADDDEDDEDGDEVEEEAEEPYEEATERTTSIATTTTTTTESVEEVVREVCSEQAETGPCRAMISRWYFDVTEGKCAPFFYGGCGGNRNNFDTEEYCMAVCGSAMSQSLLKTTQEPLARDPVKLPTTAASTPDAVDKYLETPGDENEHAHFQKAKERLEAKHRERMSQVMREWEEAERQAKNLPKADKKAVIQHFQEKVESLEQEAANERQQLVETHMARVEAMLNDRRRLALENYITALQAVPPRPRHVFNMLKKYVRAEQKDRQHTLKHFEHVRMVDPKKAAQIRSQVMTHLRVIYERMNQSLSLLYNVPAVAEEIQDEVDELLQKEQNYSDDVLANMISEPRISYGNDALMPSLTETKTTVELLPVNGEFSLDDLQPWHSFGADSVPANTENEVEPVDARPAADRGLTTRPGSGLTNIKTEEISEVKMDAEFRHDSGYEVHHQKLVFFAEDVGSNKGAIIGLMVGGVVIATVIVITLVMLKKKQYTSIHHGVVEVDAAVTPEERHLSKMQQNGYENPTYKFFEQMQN
Assay: Inhibition of self-induced Amyloid beta (1 to 42 residues) (unknown origin) aggregation at 25 uM measured after 24 hrs by thioflavin T-based fluorimetric assay relative to control

Row | Compound | inhibition [%]
24 | CCN(C)C(=O)Oc1ccc(/C=C/C(=O)N2CCC(Cc3ccccc3)CC2)cc1 | 48.1

Species on record: Danio rerio
Assay: Antialzheimer activity in AlCl3-induced Zebrafish model of Alzheimer's disease assessed as increase in motility distance at 8 uM relative to control
Format: functional

Row | Compound | Efficacy [%]
25 | COc1cc2c(cc1OC)C(=O)C(CC1CCN(Cc3ccccc3)CC1)C2 (configuration not stated) [DONEPEZIL] | 57.9

Species on record: Danio rerio
Assay: Antialzheimer activity in AlCl3-induced Zebrafish model of Alzheimer's disease assessed as change in motility speed at 8 uM (reference value: 1.08 mm/s)
Format: functional

Row | Compound | Activity
26 | COc1cc2c(cc1OC)C(=O)C(CC1CCN(Cc3ccccc3)CC1)C2 (configuration not stated) [DONEPEZIL] | <=1.88 millimeter/sec

Biological target: Acetylcholinesterase (Homo sapiens, UniProt P22303)
Sequence (P22303 whole entry): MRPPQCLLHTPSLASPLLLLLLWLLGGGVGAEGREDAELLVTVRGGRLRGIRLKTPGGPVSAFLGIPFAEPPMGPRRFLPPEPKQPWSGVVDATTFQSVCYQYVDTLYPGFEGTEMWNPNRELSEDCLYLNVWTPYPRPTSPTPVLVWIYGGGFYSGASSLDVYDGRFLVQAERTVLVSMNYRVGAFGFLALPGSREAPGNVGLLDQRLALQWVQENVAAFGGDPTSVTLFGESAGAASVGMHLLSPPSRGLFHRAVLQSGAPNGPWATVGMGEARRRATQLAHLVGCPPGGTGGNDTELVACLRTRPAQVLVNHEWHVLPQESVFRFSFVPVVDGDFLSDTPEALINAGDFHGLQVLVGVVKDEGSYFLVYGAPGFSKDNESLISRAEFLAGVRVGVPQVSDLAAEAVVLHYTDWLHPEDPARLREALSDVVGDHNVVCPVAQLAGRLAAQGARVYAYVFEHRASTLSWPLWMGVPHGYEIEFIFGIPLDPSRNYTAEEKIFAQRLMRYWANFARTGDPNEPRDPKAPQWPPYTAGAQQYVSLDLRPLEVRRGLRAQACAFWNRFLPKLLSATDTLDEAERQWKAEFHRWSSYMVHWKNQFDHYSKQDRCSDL
Assay: Inhibition of human erythrocytes AChE using acetylcholine iodide as substrate incubated for 15 mins by Ellman's method

Row | Compound | IC50 [µM]
27 | COc1cc(/C=C/C(=O)N2CCCCC2)ccc1OC(=O)N(C)C | 9.1
28 | CCN(C)C(=O)Oc1ccc(/C=C/C(=O)N2CCC(Cc3ccccc3)CC2)cc1 | 27.1
29 | COc1cc(/C=C/C(=O)O)ccc1O [FERULATE] | > 100
30 | CCN(CC)C(=O)Oc1ccc(/C=C/C(=O)N2CCc3ccccc3C2)cc1OC | 15.7

System: not listed separately
Assay: Selectivity index, ratio of IC50 for Electrophorus electricus AChE to IC50 for equine serum BuChE

Row | Compound | Ratio IC50
31 | COc1cc(/C=C/C(=O)N2CCCCC2)ccc1OC(=O)N(C)C | 0.67
32 | CCN(C)C(=O)Oc1ccc(/C=C/C(=O)N2CCC(Cc3ccccc3)CC2)cc1 | 4.2
33 | CCN(CC)C(=O)Oc1ccc(/C=C/C(=O)N2CCc3ccccc3C2)cc1OC | 6.8

Biological target: T1, Cholinesterase
Assay: Inhibition of human serum BuChE assessed as residual activity at 0.1 times IC50 using acetylcholine iodide as substrate measured after dilution by Ellman's method relative to control

Row | Compound | Activity [%]
34 | COc1cc2c(cc1OC)C(=O)C(CC1CCN(Cc3ccccc3)CC1)C2 (configuration not stated) [DONEPEZIL] | 63.2

Biological target: T3, Amine oxidase [flavin-containing] A (Homo sapiens, UniProt P21397)
T3 sequence (P21397 whole entry): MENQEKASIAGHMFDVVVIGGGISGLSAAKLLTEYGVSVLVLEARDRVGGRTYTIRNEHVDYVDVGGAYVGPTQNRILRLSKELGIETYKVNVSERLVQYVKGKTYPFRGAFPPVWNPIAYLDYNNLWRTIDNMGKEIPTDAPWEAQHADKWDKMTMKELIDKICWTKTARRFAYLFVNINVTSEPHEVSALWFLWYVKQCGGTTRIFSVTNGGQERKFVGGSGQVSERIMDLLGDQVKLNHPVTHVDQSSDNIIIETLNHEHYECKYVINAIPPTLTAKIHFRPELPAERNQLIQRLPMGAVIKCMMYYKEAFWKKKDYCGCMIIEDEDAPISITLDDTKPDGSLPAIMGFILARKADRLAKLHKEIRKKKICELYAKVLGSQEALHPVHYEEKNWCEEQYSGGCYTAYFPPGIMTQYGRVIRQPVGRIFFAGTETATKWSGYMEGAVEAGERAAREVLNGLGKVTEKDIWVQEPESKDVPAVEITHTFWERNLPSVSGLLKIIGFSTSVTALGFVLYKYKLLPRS
Assay: Inhibition of recombinant human MAO-A

Row | Compound | IC50 [µM]
35 | COc1cc(/C=C/C(=O)N2CCCCC2)ccc1OC(=O)N(C)C | 33.3
36 | CCN(C)C(=O)Oc1ccc(/C=C/C(=O)N2CCC(Cc3ccccc3)CC2)cc1 | 56.8
37 | CCN(CC)C(=O)Oc1ccc(/C=C/C(=O)N2CCc3ccccc3C2)cc1OC | 8
